{"source": "paper PMC8645336", "about": "“Benchmarking a highly selective USP30 inhibitor for enhancement of mitophagy and pexophagy” (Life Science Alliance, 2021)", "key": {"USP25": {"target": "T1, USP25 (Homo sapiens, UniProt Q9UHP3)", "T1 sequence (Q9UHP3 1-1055)": "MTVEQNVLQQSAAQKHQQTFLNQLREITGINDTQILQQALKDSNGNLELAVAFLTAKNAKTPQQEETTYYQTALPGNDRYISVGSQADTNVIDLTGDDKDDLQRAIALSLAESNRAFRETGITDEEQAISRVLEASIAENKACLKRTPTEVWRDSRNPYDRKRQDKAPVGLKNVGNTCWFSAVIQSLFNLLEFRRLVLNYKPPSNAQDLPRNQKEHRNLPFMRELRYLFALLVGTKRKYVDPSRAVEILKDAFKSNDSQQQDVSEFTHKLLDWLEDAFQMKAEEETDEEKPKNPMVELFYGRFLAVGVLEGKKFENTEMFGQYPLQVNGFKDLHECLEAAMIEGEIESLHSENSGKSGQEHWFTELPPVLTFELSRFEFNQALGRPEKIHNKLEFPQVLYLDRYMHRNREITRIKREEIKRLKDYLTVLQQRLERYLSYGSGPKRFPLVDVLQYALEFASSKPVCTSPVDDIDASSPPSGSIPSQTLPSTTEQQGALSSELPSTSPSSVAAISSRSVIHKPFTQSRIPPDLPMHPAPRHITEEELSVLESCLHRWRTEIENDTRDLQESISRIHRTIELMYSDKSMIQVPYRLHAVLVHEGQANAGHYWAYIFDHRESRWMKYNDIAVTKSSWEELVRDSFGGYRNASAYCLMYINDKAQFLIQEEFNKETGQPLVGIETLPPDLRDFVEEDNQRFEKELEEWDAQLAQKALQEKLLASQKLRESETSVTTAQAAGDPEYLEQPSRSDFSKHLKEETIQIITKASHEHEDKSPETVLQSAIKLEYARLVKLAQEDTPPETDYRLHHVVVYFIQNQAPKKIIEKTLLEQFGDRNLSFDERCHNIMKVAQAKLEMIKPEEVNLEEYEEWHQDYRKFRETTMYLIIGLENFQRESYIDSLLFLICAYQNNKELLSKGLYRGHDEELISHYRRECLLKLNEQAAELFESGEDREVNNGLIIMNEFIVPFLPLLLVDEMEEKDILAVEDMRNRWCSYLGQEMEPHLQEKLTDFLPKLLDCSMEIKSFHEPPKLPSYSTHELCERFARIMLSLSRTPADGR", "assay": "biochemical", "parameters": "Ubiquigent DUB profiler selectivity panel, remaining enzyme activity as % of control", "conditions": "read-out: % of control remaining", "procedure,_shortened": "(§1)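 In YFP-PRKN-overexpressing hTERT-RPE1 cells, 1 h antimycin A plus oligomycin A (1 μM each) with CMPD-39, then Western blot of TOMM20 ubiquitylation. Target engagement: 2 h compound, then 10 min HA-Ub-PA at 37°C, read as USP30 shift. DUB panel (>40 enzymes) screened at 1-100 μM.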"}, "USP21": {"target": "T2, USP21 (Homo sapiens, UniProt Q9UK80)", "T2 sequence (Q9UK80 1-565)": "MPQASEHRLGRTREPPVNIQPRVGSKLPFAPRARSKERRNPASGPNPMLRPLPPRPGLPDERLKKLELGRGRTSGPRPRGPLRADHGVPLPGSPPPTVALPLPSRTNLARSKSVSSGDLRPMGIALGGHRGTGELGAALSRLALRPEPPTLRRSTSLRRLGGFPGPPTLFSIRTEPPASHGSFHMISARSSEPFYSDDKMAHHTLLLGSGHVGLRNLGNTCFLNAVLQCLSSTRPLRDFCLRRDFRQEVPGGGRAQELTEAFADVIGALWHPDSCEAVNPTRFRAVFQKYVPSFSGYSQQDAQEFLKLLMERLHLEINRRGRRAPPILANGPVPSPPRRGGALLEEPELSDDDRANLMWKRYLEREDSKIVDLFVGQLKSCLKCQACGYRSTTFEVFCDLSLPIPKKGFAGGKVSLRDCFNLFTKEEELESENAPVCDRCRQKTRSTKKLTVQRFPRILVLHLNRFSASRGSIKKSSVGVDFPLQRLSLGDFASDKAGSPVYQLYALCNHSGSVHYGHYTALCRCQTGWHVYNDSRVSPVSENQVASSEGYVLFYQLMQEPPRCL", "assay": "biochemical", "parameters": "Ubiquigent DUB profiler selectivity panel, remaining enzyme activity as % of control", "conditions": "read-out: % of control remaining", "procedure,_shortened": "as §1"}}, "data": [{"smiles": "CC(C)(C)NS(=O)(=O)c1ccc(NC(=O)[C@H](Cc2ccccc2)NC(=O)c2ccc(F)cc2)cc1", "note": "[compound 39, CMPD-39]", "values": [{"measurement": "remaining activity at 1 µM", "setting": "USP25", "result": 103, "unit": "%"}, {"measurement": "remaining activity at 10 µM", "setting": "USP25", "result": 94.5, "unit": "%"}, {"measurement": "remaining activity at 100 µM", "setting": "USP25", "result": 103, "unit": "%"}, {"measurement": "remaining activity at 1 µM", "setting": "USP21", "result": 102, "unit": "%"}, {"measurement": "remaining activity at 10 µM", "setting": "USP21", "result": 94, "unit": "%"}, {"measurement": "remaining activity at 100 µM", "setting": "USP21", "result": 90.9, "unit": "%"}]}]}
